Reference: patent publication US20250163119A1, “COMPOUNDS FOR THE TREATMENT OF DIABETES OR OBESITY” (Eli Lilly and Company, priority 2023, published 2025)
Several values for one entry are separate records, joined by “and”; a condition that tells them apart may be missing. Equal values may be shown once. Read-outs that look alike come from different tables or passages of the source. *1 amine or outer side, *2 acyl side, *3 side chain or, on linkers, in order; H or OH if unused. Where a SMILES comes first, the peptide text is derived from it. Side-chain parts run from the residue outwards. [ ]: non-standard residue; d: D form. The star is where a group is joined. C20 diacid = O=C(O)CCCCCCCCCCCCCCCCCCC(=O)*; γGlu = O=C(O)[C@H](CCC(=O)[*:2])N[*:1]; εLys = N[C@@H](CCCCN[*:1])C(=O)[*:2]; NMeI = CC[C@H](C)[C@H](NC)C(=O)O; αMeL = CC(C)C[C@](C)(N)C(=O)O; AEEA = NCCOCCOCC(=O)O; Aib = CC(C)(N)C(=O)O

What was measured:
[1] = test system: MHC-II presented peptides on human dendritic cells; assay: MAPPS assay (MHC-Associated Peptide Proteomics); format: cell-based
Description: MAPPS profiles the MHC-II presented peptides on human dendritic cells treated with tested molecules. CD14+ cells, isolated from the PBMCs of normal human donors, were cultured and differentiated into immature DCs by incubation with IL-4 and GM-CSF. On day 4, culture media was replaced with fresh media containing tested molecules. On day 5, LPS was added to transform the cells into mature DCs. On day 6, cells were lysed in RIPA buffer with protease inhibitors. Immunoprecipitation of MHC-II complexes were performed using biotinylated anti-MHC-II antibody coupled to streptavidin beads. The bound complex was eluted and filtered. The isolated MHC-II peptides were analyzed by a mass spectrometer. Peptide identifications were generated by an internal proteomics pipeline using search algorithms with no enzyme and a bovine/human database with test sequences appended to the database. A KNIME workflow was used to process the identification files from the samples. Peptides identified from the test articles were aligned against the parent sequence of the test molecule. The output was used to determine the percentage of donors displaying MHC-II peptides from regions of the test molecule. Polypeptides comprising SEQ ID NOs:54, 49, 50, 29, 41, 45, 1, 22, 25 were tested in the MAPPs assay. […] Depending on the donors, up to three major clusters were observed, each slightly shifted from the others, altogether spanning residues 1-33.

[2] = Pharmacokinetics in Yucatan mini-pigs, single subcutaneous or intravenous dose; format: in vivo
Description: Plasma concentrations of compounds were determined by LC/MS methods. For each assay, the compound and an internal standard (IS), were extracted from 100% mouse, rat, pig, or monkey plasma (70 μL) using Isopropanol-Methanol. Two distinct layers were formed upon centrifugation with the compound and the IS located in the supernatant layer. An aliquot of the supernatant (150 μL) was transferred to a Waters Sirocco Protein Precipitation Plate. The supernatant was eluted using a positive pressure manifold. The supernatant was mixed with 100-2 Water-Formic acid (400 μL) in a pretreated Sep-Pak tC18 SPE plate and eluted to waste. The peptide and IS were eluted with Acetonitrile-Formic acid (100 μL) in 2 steps (50 μL each step). The elution (40 μL) from SPE plate was mixed with diluent solution (1.875 μL 5× invitrosol and 3.125 μL 1% formic acid in water, 80 μL). A final sample (10 μl) was loaded onto a Xselect CSH C18 IS column (3.5 μm 2.1×20 mm). The column effluent was directed into a Thermo Fisher Scientific Orbitrap (Exploris 240) mass spectrometer for detection and quantitation.
Male Yucatan mini-pigs were administered a single subcutaneous dose or intravenous dose (19 or 99 nmol/kg) of compound in 40 mM Tris-HCl 5% D-mannitol (pH 8) at a volume of 0.01 or 0.05 mL/kg. Blood was collected from each animal at 0.083 (IV only), 0.5, 3, 6, 24, 48, 72, 96, 168, 240, 336, 408, and 504 hours postdose for pharmacokinetic characterization.

[3] = Yucatan mini-pig, minipig, plasma, sc, male Yucatan pigs, single subcutaneous dose 19 nmol/kg, Mean, read-out: AUC0-inf
[4] = Yucatan mini-pig, minipig, plasma, sc, male Yucatan pigs, single subcutaneous dose 19 nmol/kg, Mean, read-out: Cmax
[5] = male Yucatan pigs, single subcutaneous dose 19 nmol/kg, individual animal
[6] = male, Yucatan mini-pig, minipig, plasma, iv, 19 nmol/kg, single intravenous dose 19 nmol/kg, individual animal
[7] = male, Yucatan mini-pig, minipig, plasma, iv, 19 nmol/kg, single intravenous dose 19 nmol/kg, mean
[8] = male, Yucatan mini-pig, minipig, plasma, sc, 19 nmol/kg, single subcutaneous dose 19 nmol/kg, Mean
[9] = male, Yucatan mini-pig, minipig, plasma, sc, 19 nmol/kg, single subcutaneous dose 19 nmol/kg, Mean, read-out: CL/F (converted)
[10] = male, Yucatan mini-pig, minipig, plasma, sc, 19 nmol/kg, single subcutaneous dose 19 nmol/kg, Mean, read-out: Tmax
[11] = male, Yucatan mini-pig, minipig, plasma, sc, 19 nmol/kg, single subcutaneous dose 19 nmol/kg, individual animal
[12] = minipig, plasma, single intravenous dose 19 nmol/kg, male Yucatan pigs, mean, read-out: AUC0-inf
[13] = minipig, plasma, single intravenous dose 19 nmol/kg, male Yucatan pigs, mean, read-out: C0
[14] = single intravenous dose 19 nmol/kg, male Yucatan pigs, individual animal

| AUC0-inf [2, 3] [µM·h] | Cmax [2, 4] [µM] | AUC0-inf [2, 5] | CL/F [2, 5] | Cmax [2, 5] | T1/2 [2, 5] [h] | Tmax [2, 5] | clearance [2, 6] [mL/day/kg] | half-life [2, 6] [h] | clearance [2, 7] [mL/day/kg] | half-life [2, 7] [h] | half-life [2, 8] [h] | CL/F [2, 9] [mL/day/kg] | Tmax [2, 10] [h] | half-life [2, 11] [h] | AUC0-inf [2, 12] [µM·h] | C0 [2, 13] [µM] | AUC0-inf [2, 14] | C0 [2, 14] | CL [2, 14] [mL/day/kg] | Compound | other results |
| --- | --- | --- | --- | --- | --- | --- | --- | --- | --- | --- | --- | --- | --- | --- | --- | --- | --- | --- | --- | --- | --- |
|  |  |  |  |  |  |  |  |  |  |  |  |  |  |  |  |  |  |  |  | CC[C@H](C)[C@H](NC)C(=O)N[C@H](C(=O)N[C@@H](CC(C)C)C(=O)N[C@@H](CO)C(=O)N[C@@H](CC(C)C)C(=O)N[C@@H](CC(=O)O)C(=O)N[C@H](C(=O)N1CCC[C@H]1C(=O)N[C@H](C(=O)NCC(=O)N[C@@H](CC(C)C)C(=O)N[C@@H](CC(C)C)C(=O)N[C@@H](CCC(N)=O)C(=O)N[C@H](C(=O)N[C@@H](CC(C)C)C(=O)N[C@@H](CC(C)C)C(=O)N[C@@H](CCC(=O)O)C(=O)N[C@@H](CCC(N)=O)C(=O)N[C@@H](CCC(=O)O)C(=O)N[C@@H](CCCCN)C(=O)N[C@@H](CCC(N)=O)C(=O)N[C@@H](CCC(=O)O)C(=O)N[C@@H](CCCCN)C(=O)N[C@@H](CCC(=O)O)C(=O)N[C@@H](CCCCN)C(=O)N[C@@H](CCC(N)=O)C(=O)N[C@@H](CCC(N)=O)C(=O)N[C@@H](C)C(=O)N[C@@H](CCCCNC(=O)COCCOCCNC(=O)COCCOCCNC(=O)CC[C@H](NC(=O)CC[C@H](NC(=O)CCCCCCCCCCCCCCCCCCC(=O)O)C(=O)O)C(=O)O)C(=O)N[C@H](C(=O)N[C@@H](CC(N)=O)C(=O)N[C@@H](C)C(=O)N[C@@H](CCC(N)=O)C(=O)N[C@H](C(=O)N[C@@H](CC(C)C)C(=O)N[C@@H](C)C(=O)N[C@@H](CCC(N)=O)C(=O)N[C@H](C(N)=O)C(C)C)[C@@H](C)CC)[C@@H](C)O)[C@@H](C)CC)[C@@H](C)CC)C(C)C)C(C)C [SEQ ID NO: 54] (H-[NMeI]VLSLDVPIGLLQILLEQEKQEKEKQQAK([AEEA-AEEA-γGlu-γGlu-C20 diacid])TNAQILAQV-NH2) | MAPPS Assay >10 donors with diverse MHC ([1]; donors displaying MHC-II peptides / donors tested): 7/10; peptides displayed on MHC-II complexes ([1]; human dendritic cells from normal donors): at least one peptide cluster on MHC-II complexes in a subset of donors; MAPPS Assay >10 donors with diverse MHC ([1]; percentage of donors displaying MHC-II peptides): 70% |
| 32.5 | 0.149 | 29.3 µM·h and 35.6 µM·h | 13.6 mL/day/kg | 0.14 µM and 0.157 µM | 66.8 | 48 h and 6.0 h | 13.9 | 86.7 | 12.5 | 88 | 68.5 | 14.6 | 27 | 70.1 | 36.9 | 0.943 | 32.5 µM·h and 41.2 µM·h | 0.899 µM and 0.987 µM | 11 | Ac-PPPIVTS[αMeL]DVPT[Aib][αMeL]LQKLLEQERAEKARQQAK([γGlu-AEEA-εLys-C20 diacid])EAAEILAQV-NH2 [SEQ ID NO: 48, Ac-PPPIVTS αMeL DVPT Aib αMeL LQKLLEQERAEKARQQAK(γE-(2-[2-(2-Amino-ethoxy)-ethoxy]-acetyl)-ϵK-CO-(CH2)18-CO2H)EAAEILAQV-NH2] | CL/F ([2]; male, Yucatan mini-pig, minipig, plasma, sc, 19 nmol/kg, single subcutaneous dose 19 nmol/kg, individual animal, read-out: CL/F (converted)): 15.7 mL/day/kg; T1/2 [2, 14]: 89.2 h |
| 18.1 | 0.107 | 24.4 µM·h and 11.7 µM·h | 18.9 mL/day/kg and 39.1 mL/day/kg | 0.154 µM and 0.0604 µM | 90.8 | 6 h and 96 h | 15.6 | 95.4 | 14.6 | 85.3 | 80.8 | 29 | 51 | 70.7 | 30.9 | 0.694 | 28.9 µM·h and 32.8 µM·h | 0.809 µM and 0.578 µM | 13.7 | Ac-GSPSIVTS[αMeL]DVPT[Aib][αMeL]LQKLLEQERAEKARQQAK([γGlu-AEEA-εLys-C20 diacid])EAAEILAQV-NH2 [SEQ ID NO: 2, Ac-GSPSIVTS αMeL DVPT Aib αMeL LQKLLEQERAEKARQQAK(γE-(2-[2-(2-Amino-ethoxy)-ethoxy]-acetyl)-ϵK-CO-(CH2)18-CO2H)EAAEILAQV-NH2] | T1/2 [2, 14]: 75.1 h |
